Positions of bridges follow the written chain, without caps; N, C: chain ends. Non-standard residues stand in square brackets, D forms with d. Residues, ends and D or L forms follow the SMILES beside them. Trp(7-Me) = Cc1cccc2c(C[C@H](N)C(=O)O)c[nH]c12; cisHyp = O=C(O)[C@@H]1C[C@H](O)CN1; Hyp = O=C(O)[C@@H]1C[C@@H](O)CN1; NMeNle = CCCC[C@H](NC)C(=O)O; NMeA = CN[C@@H](C)C(=O)O; Orn = NCCC[C@H](N)C(=O)O; Dab = NCC[C@H](N)C(=O)O; Dap = NC[C@H](N)C(=O)O
Legend:
Human PD-L1/PD-1 = molecular target: T1, Human PD-L1/PD-1 (Homo sapiens, UniProt Q9NZQ7); assay: HTRF PD-1-Ig/PD-L1-His binding assay (human PD-L1); settings: cluster symbol; read-out: HTRF IC50 cluster
T1 construct: made in house; host or cells: HEK293T
Outline: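 Readout: time-resolved FRET between Eu cryptate-labeled anti-Ig (1 nM final) and APC-labeled anti-His (20 nM final) antibodies. These detect interaction of Fc-fused PD-1 with His-tagged human PD-L1 in dPBS containing 0.1% BSA and 0.05% Tween-20.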

[1] = molecular target: T2, LK35.2-hPD-L1 cells / PE-labeled PD-1-Ig (Homo sapiens, UniProt Q9NZQ7); assay: LK35.2-hPD-L1 cell binding high-content screening assay; format: cell-based; settings: cluster symbol; cell line of CBA not given (LK35.2-hPD-L1 or 293T-hPD-L1); read-out: CBA IC50 cluster
T2 construct: expressed in transfected cells; host or cells: LK35.2 mouse B cell line
Outline: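 Mouse LK35.2 B cells stably over-expressing human PD-L1, cultured overnight, treated with compound plus PE-labeled human PD-1-Ig (1 nM final) in RPMI/10% FCS for 1 h at 37 °C. After washing, bound fluorescence quantified by high-content imaging.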

T2 sequence (Q9NZQ7 19-290): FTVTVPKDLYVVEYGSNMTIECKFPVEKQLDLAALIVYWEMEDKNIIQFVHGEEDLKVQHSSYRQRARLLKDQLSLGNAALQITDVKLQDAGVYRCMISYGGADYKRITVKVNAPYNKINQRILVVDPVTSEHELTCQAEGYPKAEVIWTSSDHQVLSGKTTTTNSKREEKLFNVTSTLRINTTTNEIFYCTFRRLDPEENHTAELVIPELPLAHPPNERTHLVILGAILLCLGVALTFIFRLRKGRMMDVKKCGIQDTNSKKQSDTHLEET
T1 sequence (Q9NZQ7 with tags, fused parts or gaps): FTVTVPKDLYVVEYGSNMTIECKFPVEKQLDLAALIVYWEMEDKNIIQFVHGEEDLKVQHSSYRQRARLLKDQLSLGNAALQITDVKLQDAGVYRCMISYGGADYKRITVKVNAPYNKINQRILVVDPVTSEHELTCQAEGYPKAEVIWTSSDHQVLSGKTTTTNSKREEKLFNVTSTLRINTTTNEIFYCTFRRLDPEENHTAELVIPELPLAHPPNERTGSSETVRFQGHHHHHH

Row | Structure (SMILES) | IC50 (Human PD-L1/PD-1) [nM] | IC50 [1] [nM]
1 | CCCC[C@H]1C(=O)N(C)[C@@H](CCCC)C(=O)N[C@@H](CCCNC(=N)N)C(=O)N[C@H](C(=O)NCC(N)=O)CSCC(=O)N[C@@H](Cc2ccc(O)cc2)C(=O)N(C)[C@@H](C)C(=O)N[C@@H](CC(N)=O)C(=O)N2CCC[C@H]2C(=O)N[C@@H](Cc2cnc[nH]2)C(=O)N[C@@H](CC(C)C)C(=O)N2CCC[C@H]2C(=O)N[C@@H](Cc2c[nH]c3ccccc23)C(=O)N[C@@H](CO)C(=O)N[C@@H](Cc2c[nH]c3c(C)cccc23)C(=O)N1C [Example 1144] ({CH2CO}-Y[NMeA]NPHLPWS[Trp(7-Me)][NMeNle][NMeNle]RCG-NH2; thioether N-14) | > 30.5 | 4.78 to 72.9
2 | CCCC[C@H]1C(=O)N(C)[C@@H](CCCC)C(=O)N[C@@H](CCCNC(=N)N)C(=O)N[C@H](C(=O)NCC(N)=O)CSCC(=O)N[C@@H](Cc2ccc(O)cc2)C(=O)N(C)[C@@H](C)C(=O)N[C@@H](CCCN)C(=O)N2CCC[C@H]2C(=O)N[C@@H](C)C(=O)N[C@@H](CCC(=O)O)C(=O)N2C[C@@H](O)C[C@H]2C(=O)N[C@@H](Cc2c[nH]c3ccccc23)C(=O)N[C@@H](CO)C(=O)N[C@@H](Cc2c[nH]c3ccccc23)C(=O)N1C [Example 1147] ({CH2CO}-Y[NMeA][Orn]PAE[cisHyp]WSW[NMeNle][NMeNle]RCG-NH2; thioether N-14) | 6.76 to 30.3 | 4.78 to 72.9
3 | CCCC[C@H]1C(=O)N(C)[C@@H](CCCC)C(=O)N[C@@H](CCCNC(=N)N)C(=O)N[C@H](C(=O)NCC(N)=O)CSCC(=O)N[C@@H](Cc2ccc(O)cc2)C(=O)N2CCC[C@H]2C(=O)N[C@@H](CC(N)=O)C(=O)N2CCC[C@H]2C(=O)N[C@@H](Cc2cnc[nH]2)C(=O)N[C@@H](CC(C)C)C(=O)N2C[C@@H](O)C[C@H]2C(=O)N[C@@H](Cc2c[nH]c3ccccc23)C(=O)N[C@@H](CO)C(=O)N[C@@H](Cc2c[nH]c3ccccc23)C(=O)N1C [Example 1148] ({CH2CO}-YPNPHL[cisHyp]WSW[NMeNle][NMeNle]RCG-NH2; thioether N-14) | 6.76 to 30.3 | 4.78 to 72.9
4 | CCCC[C@H]1C(=O)N(C)[C@@H](CCCC)C(=O)N[C@@H](C)C(=O)N[C@H](C(=O)NCC(N)=O)CSCC(=O)N[C@@H](Cc2ccc(O)cc2)C(=O)N2CCC[C@H]2C(=O)N[C@@H](CC(=O)O)C(=O)N2CCC[C@H]2C(=O)N[C@@H](CN)C(=O)N[C@@H](CC(C)C)C(=O)N2C[C@@H](O)C[C@H]2C(=O)N[C@@H](Cc2c[nH]c3ccccc23)C(=O)N[C@@H](CCN)C(=O)N[C@@H](Cc2c[nH]c3ccccc23)C(=O)N1C [Example 1150] ({CH2CO}-YPDP[Dap]L[cisHyp]W[Dab]W[NMeNle][NMeNle]ACG-NH2; thioether N-14) | 0.385 to 6.74 | 0.158 to 4.71
5 | CCCC[C@H]1C(=O)N(C)[C@@H](CCCC)C(=O)N[C@@H](C)C(=O)N[C@H](C(=O)NCC(N)=O)CSCC(=O)N[C@@H](Cc2ccc(O)cc2)C(=O)N2CCC[C@H]2C(=O)N[C@@H](CC(=O)O)C(=O)N2CCC[C@H]2C(=O)N[C@@H](CN)C(=O)N[C@@H](CC(C)C)C(=O)N2C[C@H](O)C[C@H]2C(=O)N[C@@H](Cc2c[nH]c3ccccc23)C(=O)N[C@@H](CO)C(=O)N[C@@H](Cc2c[nH]c3ccccc23)C(=O)N1C [Example 1152] ({CH2CO}-YPDP[Dap]L[Hyp]WSW[NMeNle][NMeNle]ACG-NH2; thioether N-14) | 6.76 to 30.3 | 4.78 to 72.9
6 | CCCC[C@H]1C(=O)N(C)[C@@H](CCCC)C(=O)N[C@@H](C)C(=O)N[C@H](C(=O)NCC(=O)O)CSCC(=O)N[C@@H](Cc2ccc(O)cc2)C(=O)N(C)[C@@H](C)C(=O)N[C@@H](CC(N)=O)C(=O)N2CCC[C@H]2C(=O)N[C@@H](Cc2cnc[nH]2)C(=O)N[C@@H](CC(C)C)C(=O)N[C@@H](CCCN)C(=O)N[C@@H](Cc2c[nH]c3ccccc23)C(=O)N[C@@H](CO)C(=O)N[C@@H](Cc2csc3ccccc23)C(=O)N1C [Example 1153] | > 30.5 | 4.78 to 72.9
7 | CCCC[C@H]1C(=O)N(C)[C@@H](CCCC)C(=O)N[C@@H](C)C(=O)N[C@H](C(=O)NCC(=O)O)CSCC(=O)N[C@@H](Cc2ccc(O)cc2)C(=O)N(C)[C@@H](C)C(=O)N[C@@H](CC(N)=O)C(=O)N2CCC[C@H]2C(=O)N[C@@H](Cc2cnc[nH]2)C(=O)N[C@@H](CC(C)C)C(=O)N[C@@H](CCCN)C(=O)N[C@@H](Cc2c[nH]c3ccccc23)C(=O)N[C@@H](CO)C(=O)N[C@@H](Cc2c[nH]c3ccccc23)C(=O)N1C [Example 1154] | 6.76 to 30.3 | > 74.3
8 | CCCC[C@H]1C(=O)N(C)[C@@H](CCCC)C(=O)N[C@@H](CCCNC(=N)N)C(=O)N[C@H](C(=O)NCC(N)=O)CSCC(=O)N[C@@H](Cc2ccc(O)cc2)C(=O)N(C)[C@@H](C)C(=O)N[C@@H](CCN)C(=O)N2CCC[C@H]2C(=O)N[C@@H](C)C(=O)N[C@@H](CCC(=O)O)C(=O)N2C[C@H](O)C[C@H]2C(=O)N[C@@H](Cc2c[nH]c3ccccc23)C(=O)N[C@@H](CO)C(=O)N[C@@H](Cc2c[nH]c3ccccc23)C(=O)N1C [Example 1155] ({CH2CO}-Y[NMeA][Dab]PAE[Hyp]WSW[NMeNle][NMeNle]RCG-NH2; thioether N-14) | 6.76 to 30.3 | 4.78 to 72.9
9 | CCCC[C@H]1C(=O)N(C)[C@@H](CCCC)C(=O)N[C@@H](C)C(=O)N[C@H](C(=O)NCC(N)=O)CSCC(=O)N[C@@H](Cc2ccc(O)cc2)C(=O)N(C)[C@@H](C)C(=O)N[C@@H](CC(=O)O)C(=O)N2CCC[C@H]2C(=O)N[C@@H](Cc2cnc[nH]2)C(=O)N[C@@H](CCCNC(C)=O)C(=O)N2C[C@H](O)C[C@H]2C(=O)N[C@@H](Cc2c[nH]c3ccccc23)C(=O)N[C@@H](CO)C(=O)N[C@@H](Cc2c[nH]c3ccccc23)C(=O)N1C [Example 1156] ({CH2CO}-Y[NMeA]DPH[Orn](Ac)[Hyp]WSW[NMeNle][NMeNle]ACG-NH2; thioether N-14) | 0.385 to 6.74 | 0.158 to 4.71

Results, then the molecule that gave them:

Row | IC50 (Human PD-L1/PD-1) [nM] | IC50 [1] [nM] | Structure (SMILES)
10 | > 30.5 | > 74.3 | CCCC[C@H]1C(=O)N(C)[C@@H](CCCC)C(=O)N[C@@H](CCCNC(=N)N)C(=O)N[C@H](C(=O)NCC(N)=O)CSCC(=O)N[C@@H](Cc2ccc(O)cc2)C(=O)N(C)[C@@H](C)C(=O)N[C@@H](CN)C(=O)N2CCC[C@H]2C(=O)N[C@@H](C)C(=O)N[C@@H](CC(C)C)C(=O)N2C[C@@H](O)C[C@H]2C(=O)N[C@@H](Cc2c[nH]c3ccccc23)C(=O)N[C@@H](CO)C(=O)N[C@@H](Cc2c[nH]c3ccccc23)C(=O)N1C [Example 1143] ({CH2CO}-Y[NMeA][Dap]PAL[cisHyp]WSW[NMeNle][NMeNle]RCG-NH2; thioether N-14)
11 | 6.76 to 30.3 | 0.158 to 4.71 | CCCC[C@H]1C(=O)N(C)[C@@H](CCCC)C(=O)N[C@@H](CCCN)C(=O)N[C@H](C(=O)NCC(N)=O)CSCC(=O)N[C@@H](Cc2ccc(O)cc2)C(=O)N(C)[C@@H](C)C(=O)N[C@@H](CC(N)=O)C(=O)N2CCC[C@H]2C(=O)N[C@@H](CN)C(=O)N[C@@H](CC(C)C)C(=O)N2C[C@@H](O)C[C@H]2C(=O)N[C@@H](Cc2c[nH]c3ccccc23)C(=O)N[C@@H](CO)C(=O)N[C@@H](Cc2c[nH]c3ccccc23)C(=O)N1C [Example 1145] ({CH2CO}-Y[NMeA]NP[Dap]L[cisHyp]WSW[NMeNle][NMeNle][Orn]CG-NH2; thioether N-14)
12 | 6.76 to 30.3 | > 74.3 | CCCC[C@H]1C(=O)N(C)[C@@H](CCCC)C(=O)N[C@@H](CCCNC(=N)N)C(=O)N[C@H](C(=O)NCC(N)=O)CSCC(=O)N[C@@H](Cc2ccc(O)cc2)C(=O)N(C)[C@@H](C)C(=O)N[C@@H](CCCN)C(=O)N2CCC[C@H]2C(=O)N[C@@H](C)C(=O)N[C@@H](CC(C)C)C(=O)N2C[C@@H](O)C[C@H]2C(=O)N[C@@H](Cc2c[nH]c3ccccc23)C(=O)N[C@@H](CO)C(=O)N[C@@H](Cc2c[nH]c3ccccc23)C(=O)N1C [Example 1146] ({CH2CO}-Y[NMeA][Orn]PAL[cisHyp]WSW[NMeNle][NMeNle]RCG-NH2; thioether N-14)
13 | 6.76 to 30.3 | 4.78 to 72.9 | CCCC[C@H]1C(=O)N(C)[C@@H](CCCC)C(=O)N[C@@H](CCCN)C(=O)N[C@H](C(=O)NCC(N)=O)CSCC(=O)N[C@@H](Cc2ccc(O)cc2)C(=O)N2CCC[C@H]2C(=O)N[C@@H](CC(=O)O)C(=O)N2CCC[C@H]2C(=O)N[C@@H](CN)C(=O)N[C@@H](CC(C)C)C(=O)N2C[C@@H](O)C[C@H]2C(=O)N[C@@H](Cc2c[nH]c3ccccc23)C(=O)N[C@@H](CO)C(=O)N[C@@H](Cc2c[nH]c3ccccc23)C(=O)N1C [Example 1149] ({CH2CO}-YPDP[Dap]L[cisHyp]WSW[NMeNle][NMeNle][Orn]CG-NH2; thioether N-14)
14 | 6.76 to 30.3 | 0.158 to 4.71 | CCCC[C@H]1C(=O)N(C)[C@@H](CCCC)C(=O)N[C@@H](CCCN)C(=O)N[C@H](C(=O)NCC(N)=O)CSCC(=O)N[C@@H](Cc2ccc(O)cc2)C(=O)N(C)[C@@H](C)C(=O)N[C@@H](CC(N)=O)C(=O)N2CCC[C@H]2C(=O)N[C@@H](Cc2c[nH]cn2)C(=O)N[C@@H](CC(C)C)C(=O)N2C[C@H](O)C[C@H]2C(=O)N[C@@H](Cc2c[nH]c3ccccc23)C(=O)N[C@@H](CCN)C(=O)N[C@@H](Cc2c[nH]c3ccccc23)C(=O)N1C [Example 1157] ({CH2CO}-Y[NMeA]NPHL[Hyp]W[Dab]W[NMeNle][NMeNle][Orn]CG-NH2; thioether N-14)
15 | 0.385 to 6.74 | 0.158 to 4.71 | CCCC[C@H]1C(=O)N(C)[C@@H](CCCC)C(=O)N[C@@H](C)C(=O)N[C@H](C(=O)NCC(N)=O)CSCC(=O)N[C@@H](Cc2ccc(O)cc2)C(=O)N(C)[C@@H](C)C(=O)N[C@@H](CC(=O)O)C(=O)N2CCC[C@H]2C(=O)N[C@@H](CCN)C(=O)N[C@@H](CC(C)C)C(=O)N2C[C@H](O)C[C@H]2C(=O)N[C@@H](Cc2c[nH]c3ccccc23)C(=O)N[C@@H](CO)C(=O)N[C@@H](Cc2c[nH]c3ccccc23)C(=O)N1C [Example 1158] ({CH2CO}-Y[NMeA]DP[Dab]L[Hyp]WSW[NMeNle][NMeNle]ACG-NH2; thioether N-14)

Source: patent publication US9850283B2, “Macrocyclic inhibitors of the PD-1/PD-L1 and CD80(B7-1)/PD-L1 protein/protein interactions” (BRISTOL-MYERS SQUIBB COMPANY, priority 2013, dated 2017)
